# What was measured:
# Type in all cases: in vivo
# [1] = test system: healthy postmenopausal women; experiment: Clinical study: continuous combined HRT (estradiol/drosperinone) with or without captopril; settings: 15 mg captopril with continuous combined HRT (1 mg estradiol, 2 mg drosperinone), three periods of 28 days; vs HRT preparation alone
# Description: A clinical study is conducted in 50 healthy postmenopausal women, postmenopausal being defined as having had the last menstrual period at least 6 months before along with an increased FSH serum level. Two groups of 25 women who are not using any HRT are enrolled. All subjects receive a continuous combined HRT preparation containing 1 mg estradiol and 2 mg drosperinone for three periods of 28 days each. […] Subjects document any unscheduled vaginal bleeding (spotting, breakthrough bleeding) in a diary. Blood pressure is monitored intensively.
# [2] = test system: healthy women of childbearing age; experiment: Clinical study: low-dose oral contraceptive (30 μg ethinylestradiol/100 μg levonorgestrel) with or without enalapril; settings: 5 mg enalapril with oral contraceptive (30 μg ethinylestradiol, 100 μg levonorgestrel), 84 days; vs oral contraceptive alone
# Description: A clinical study is conducted in 50 healthy women of childbearing age. Two groups of 25 women who are not using oral contraception, ‘pill starters’, are enrolled. All subjects receive a low-dose oral contraceptive containing 30 μg ethinylestradiol and 100 μg levonorgestrel for 84 days. Twenty-five (25) subjects are randomized to additionally receive 5 mg enalapril as an ACE-inhibitor with the oral contraceptive during the entire study period. All subjects document any unscheduled vaginal bleeding (spotting, breakthrough bleeding) in a diary. Blood pressure is monitored intensively.
# [3] = test system: healthy women of childbearing age; experiment: Clinical study: contraceptive injections (150 mg medroxyprogesterone acetate) with or without irbesartan; settings: daily 75 mg irbesartan, 6 months, with two injections of 150 mg medroxyprogesterone acetate; vs contraceptive injection alone
# Description: (§1) A clinical study is conducted in 40 healthy women of childbearing age. Two groups of 20 women are enrolled. All subjects receive two contraceptive injections containing 150 mg medroxyprogesterone acetate each with an interval of 3 months (13 weeks). Twenty (20) subjects are randomized to additionally receive daily 75 mg irbesartan as an angiotensin II-receptor antagonist during the entire study period of 6 months. All subjects document any unscheduled vaginal bleeding (spotting, breakthrough bleeding) in a diary. Blood pressure is monitored intensively.
# [4] = test system: healthy postmenopausal women; experiment: Clinical study: continuous combined HRT (estradiol/norethisterone acetate) with or without irbesartan; settings: 50 mg irbesartan with continuous combined HRT (2 mg estradiol, 1 mg norethisterone acetate), 84 days; vs HRT preparation alone
# Description: (§2) A clinical study is conducted in 40 healthy postmenopausal women, postmenopausal being defined as having had the last menstrual period at least 6 months before along with an increased FSH serum level. Two groups of 20 women who are not using any HRT are enrolled. All subjects receive a continuous combined HRT preparation containing 2 mg estradiol and 1 mg norethisterone acetate for 84 days. Twenty (20) subjects are randomized to additionally receive 50 mg irbesartan as an angiotensin II-receptor antagonist concomitantly with the HRT preparation during the entire study period. Subjects document any unscheduled vaginal bleeding (spotting, breakthrough bleeding) in a diary. Blood pressure is monitored intensively.
# [5] = test system: healthy postmenopausal women; experiment: Clinical study: sequentially combined HRT (estradiol/dydrogesterone) with or without irbesartan; settings: 75 mg irbesartan with sequentially combined HRT (2 mg estradiol, 10 mg dydrogesterone), 3 cycles of 28 days; vs HRT preparation alone
# Description: as §2, with “sequentially” for “continuous”, “for 3 cycles of 28 days each. One cycle comprises 14 days of” for “containing”, “only followed by 14 days of 2” for “and 1”, “estradiol” for “norethisterone acetate”, “14 days combined with 10 mg dydrogesterone.” for “84 days.”, “75” for “50”
# [6] = test system: healthy women of childbearing age; experiment: Clinical study: low-dose oral contraceptive (20 μg ethinylestradiol/100 μg levonorgestrel) with or without irbesartan; settings: 75 mg irbesartan with oral contraceptive (20 μg ethinylestradiol, 100 μg levonorgestrel), 84 days; vs oral contraceptive alone
# Description: (§3) A clinical study is conducted in 40 healthy women of childbearing age. Two groups of 20 women who are not using oral contraception, ‘pill starters’, are enrolled. All subjects receive a low-dose oral contraceptive containing 20 μg ethinylestradiol and 100 μg levonorgestrel for 84 days. Twenty (20) subjects are randomized to additionally receive 75 mg irbesartan as an angiotensin II-receptor antagonist concomitantly with the oral contraceptive during the entire study period. All subjects document any unscheduled vaginal bleeding (spotting, breakthrough bleeding) in a diary. Blood pressure is monitored intensively.
# [7] = test system: healthy women of childbearing age; experiment: Clinical study: progestogen-only oral contraceptive (75 μg desogestrel) with or without irbesartan; settings: 50 mg irbesartan with progestogen-only oral contraceptive (75 μg desogestrel), 84 days; vs oral contraceptive alone
# Description: as §3, with “a progestogen-only” for “a low-dose”, “containing 75” for “containing 20”, “μg desogestrel” for “μg ethinylestradiol and 100 μg levonorgestrel”, “receive 50” for “receive 75”
# [8] = test system: healthy women of childbearing age; experiment: Clinical study: contraceptive implant (68 mg etonogestrel) with or without irbesartan; settings: 75 mg irbesartan, 6 months, with implant containing 68 mg etonogestrel; vs contraceptive implant alone
# Description: as §1, with “an implant” for “two contraceptive injections”, “68” for “150”, “etonogestrel.” for “medroxyprogesterone acetate each with an interval of 3 months (13 weeks).”, “receive” for “receive daily”, “antagonist concomitantly with the contraceptive implant” for “antagonist”
compound,measurement,setting,value
C[C@H](CS)C(=O)N1CCC[C@H]1C(=O)O [captopril],Efficacy between groups,[1],do not differ significantly
same,episodes of unscheduled bleeding,[1],fewer episodes of unscheduled bleeding
same,overall safety profile,[1],comparable to that of the group receiving the HRT preparation alone
CCOC(=O)[C@H](CCc1ccccc1)N[C@@H](C)C(=O)N1CCC[C@H]1C(=O)O [enalapril],blood pressure pattern between groups,[2],does not differ significantly
same,episodes of unscheduled bleeding,[2],fewer episodes of unscheduled bleeding
same,intensity of blood loss,[2],"less intense blood loss, if any"
same,overall safety profile,[2],comparable to that of the group receiving the oral contraceptive alone
CCCCC1=NC2(CCCC2)C(=O)N1Cc1ccc(-c2ccccc2-c2nnn[nH]2)cc1 [irbesartan],blood pressure pattern between groups,[3],does not differ significantly
same,episodes of unscheduled bleeding,[3],fewer episodes of unscheduled bleeding
same,intensity of blood loss,[3],"less intense blood loss, if any"
same,overall safety profile,[3],comparable to that of the group receiving the contraceptive injection alone
same,Efficacy between groups,[4],do not differ significantly
same,blood pressure pattern between groups,[4],do not differ significantly
same,episodes of unscheduled bleeding,[4],fewer episodes of unscheduled bleeding
same,intensity of blood loss,[4],"less intense blood loss, if any"
same,overall safety profile,[4],comparable to that of the group receiving the HRT preparation alone
same,Efficacy between groups,[5],do not differ
same,blood pressure pattern between groups,[5],do not differ
same,episodes of unscheduled bleeding,[5],fewer episodes of unscheduled bleeding
same,intensity of blood loss,[5],"less intense blood loss, if any"
same,overall safety profile,[5],comparable to that of the group receiving the HRT preparation alone
same,blood pressure pattern between groups,[6],does not differ significantly
same,episodes of unscheduled bleeding,[6],fewer episodes of unscheduled bleeding
same,intensity of blood loss,[6],"less intense blood loss, if any"
same,overall safety profile,[6],comparable to that of the group receiving the oral contraceptive alone
same,blood pressure pattern between groups,[7],does not differ significantly
same,episodes of unscheduled bleeding,[7],fewer episodes of unscheduled bleeding
same,intensity of blood loss,[7],"less intense blood loss, if any"
same,overall safety profile,[7],comparable to that of the group receiving the oral contraceptive alone
same,blood pressure pattern between groups,[8],does not differ significantly
same,episodes of unscheduled bleeding,[8],fewer episodes of unscheduled bleeding
same,intensity of blood loss,[8],"less intense blood loss, if any"
same,overall safety profile,[8],comparable to that of the group receiving the contraceptive implant alone

# Reference: patent US20090197843A1, “Treatment of Prevention of Unscheduled Bleeding in Women on Progestogen Containing Medication” (PANTARHEI BIOSCIENCE B.V., priority 2004, published 2009)
